Values of other authors, collected in US8536188B2, “Dosing regimens for treatment of proliferative disorders comprising administration of sapacitabine” (Cyclacel Limited, priority 2007, dated 2013).

Legend:
[1] = test system: human tumour cells from various organs
[2] = molecular target: cytidine deaminase (Homo sapiens, UniProt P32320); settings: compared with ara-C
[3] = test system: DNA polymerase
[4] = test system: CTCL; settings: CTCL patients
[5] = test system: human tumour xenograft
[6] = phase I, patients with a variety of cancers
[7] = in vivo
[8] = test system: colon cancer; settings: model of colon cancer
[9] = single dose in rodents; repeat dose up to 3 months in mice and dogs
[10] = test system: ara-C-resistant tumour cell lines
[11] = test system: P388 leukemia
[12] = test system: cancer cell lines, including those lacking deoxycytidine kinase; settings: variety of cancer cell lines
[13] = test system: NSCLC; settings: 10 mg/m^2 intravenously over 30 minutes every three weeks

cytidine deaminase, sequence (P32320 whole entry, species assumed): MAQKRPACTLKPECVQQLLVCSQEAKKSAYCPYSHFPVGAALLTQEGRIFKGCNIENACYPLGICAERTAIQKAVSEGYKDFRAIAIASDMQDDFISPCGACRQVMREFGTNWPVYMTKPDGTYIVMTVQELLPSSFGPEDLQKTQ

SMILES: N#C[C@H]1[C@H](O)[C@@H](CO)O[C@H]1n1ccc(N)nc1=O [CNDAC, 2′-C-Cyano-2′-deoxy-β-D-arabino-pentafuranosylcytosine]
- activity against human tumour cells [1]: broad spectrum of activity
- substrate of cytidine deaminase [2]: weak substrate

SMILES: N#CC1C(O)C(COP(=O)(O)OP(=O)(O)OP(=O)(O)O)OC1n1ccc(N)nc1=O (centres unmarked) [CNDACTP, CNDAC-triphosphate]
- inhibition of DNA polymerase [3]: potent inhibition

SMILES: Nc1ccn([C@@H]2O[C@H](CO)[C@@H](O)C2(F)F)c(=O)n1 [Gemcitabine, gemcitabine]
- response rate [4]: 60-70%

SMILES: CCCCCCCCCCCCCCCC(=O)Nc1ccn([C@@H]2O[C@H](CO)[C@@H](O)[C@@H]2C#N)c(=O)n1 [sapacitabine, 2′-cyano-2′-deoxy-N^4-palmitoyl-1-β-D-arabinofuranosylcytosine]
- effect on tumour xenografts ([5]; gastric, mammary, lung, colorectal and hepatic tumour xenografts): tumour regressions were observed
- antitumour activity compared with 5′-DFUR and gemcitabine ([5]; human xenografts of poorly differentiated gastric adenocarcinoma): much more potent antitumour activity than 5′-DFUR and gemcitabine
- antitumour activity in human tumour xenograft models ([5]; variety of tumours): active against a variety of tumours
- activity against human tumour cells [1]: broad spectrum of activity
- dose limiting toxicity [6]: myelosuppression
- tolerability [6]: well tolerated
- oral bioavailability [7]: good
- anticancer activity [8]: strong anticancer activity
- increasing survival, compared with gemcitabine or 5-FU [8]: superior to either gemcitabine or 5-FU
- preventing the spread of colon cancer metastases to the liver, compared with gemcitabine or 5-FU [8]: superior to either gemcitabine or 5-FU
- major toxicities [9]: hematopoietic, gastrointestinal, and testicular
- cross-resistance to ara-C-resistant tumour cell lines [10]: partial cross-resistance
- activity in vivo against resistant P388 leukemia cell lines ([11]; P388 resistant to mitomycin C, vincristine, 5-FU or cisplatin): active
- antitumour activity compared with 5′-DFUR and gemcitabine ([11]; mouse P388 leukemia model): much more potent antitumour activity than 5′-DFUR and gemcitabine
- cytotoxicity of the parent drug [12]: cytotoxic

SMILES: Nc1ccn([C@@H]2CO[C@H](CO)O2)c(=O)n1 [troxacitabine]
- activity in NSCLC [13]: little activity
